The record followed here is US20100204119A1, “4-AMINO-5-OXO-7,8-DIHYDROPYRIMIDO[5,4-F][1,4]OXAZEPIN-6(5H)-YL PHENYL DERIVATIVES” (Pfizer Inc, priority 2009, published 2010).

For this assay, the target named is T1, Human full-length diacylglycerol:acylCoA acyltransferase 1 (DGAT-1) (Homo sapiens, UniProt O75907).
T1 sequence (O75907 1-488): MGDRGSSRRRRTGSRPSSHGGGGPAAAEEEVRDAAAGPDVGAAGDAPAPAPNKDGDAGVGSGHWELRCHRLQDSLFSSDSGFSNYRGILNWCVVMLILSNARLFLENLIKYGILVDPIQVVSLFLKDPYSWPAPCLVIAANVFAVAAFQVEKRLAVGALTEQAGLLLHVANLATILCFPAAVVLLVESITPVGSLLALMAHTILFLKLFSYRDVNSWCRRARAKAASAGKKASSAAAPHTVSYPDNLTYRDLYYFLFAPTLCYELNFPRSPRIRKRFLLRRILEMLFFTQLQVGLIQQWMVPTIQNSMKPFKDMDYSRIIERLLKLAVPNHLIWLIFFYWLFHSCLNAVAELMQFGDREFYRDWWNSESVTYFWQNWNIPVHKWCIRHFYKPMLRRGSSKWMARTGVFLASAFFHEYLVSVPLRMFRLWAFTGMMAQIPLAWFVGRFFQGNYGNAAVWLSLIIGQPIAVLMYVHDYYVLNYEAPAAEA
Nature of the assay: In vitro assay for inhibition of DGAT-1 activity (DGAT 1 Reduced Microsome Multidose Assay). Conditions: average where n > 1.

The mark [1] stands for this setting: Trial 4 Human IC50, Trial 4: eight concentrations of inhibitor, microsomes 5 μg/mL.
The mark [2] stands for this setting: Trial 1 Human IC50, Trial 1: as Trial 4 except microsomes at 25 μg/mL instead of 5 μg/mL.

Experimental: Human full-length diacylglycerol:acylCoA acyltransferase 1 (DGAT-1) was expressed in Sf9 insect cells which are then lysed and a crude membrane fraction (105,000×g pellet) was prepared.
Inhibitors in DMSO were pre-incubated with membranes before initiating the DGAT-1 reaction by the addition of decanoylCoA. […] The inhibitors were present at a range of eight concentrations to generate an apparent IC50 for each compound. […] Specifically, the eight concentrations used were 3 μM, 1 μM, 300 nM, 100 nM, 30 nM, 10 nM, 3 nM and 1 nM.
The reactions were allowed to proceed for 1.5 hours at room temperature and then terminated by the addition of 20 μl of EDTA (40 mM). Reaction mixture is then mixed by trituration with 30 μl of Microscint™-E (Perkin Elmer). […] Four separate trials were conducted. The method of analysis of Trial 1 was the same as Trial 4 (described above) except microsomes were utilized at 25 μg/mL instead of 5 μg/mL. The method of analysis of Trial 2 was the same as Trial 4 (described above) except eleven (11) concentrations of inhibitor were employed instead of eight (8). The method of analysis of Trial 3 was the same as Trial 2 except the compounds were serially diluted in a different laboratory.
Where this DGAT-1 inhibition assay was performed on a compound more than once, an average is provided for that compound.

Turning to `Cc1ccc(N2C[C@@H](C)Oc3ncnc(N)c3C2=O)cc1` [Example 1P, (8R)-4-amino-8-methyl-6-(4-methylphenyl)-7,8-dihydropyrimido[5,4-f]-[1,4]oxazepin-5(6H)-one], under setting [1], the midpoint of inhibition, the IC50, lay at 52.8 nM.
`C[C@@H]1CN(c2ccc([C@H]3C[C@@H](O)C3)cc2)C(=O)c2c(N)ncnc2O1` [Example 1Q] returned an IC50 under setting [1] of 76.5 nM.
Still for that read-out and setting: the value for `C[C@@H]1CN(c2ccc(C(O)C(F)(F)F)cc2)C(=O)c2c(N)ncnc2O1` (stereo partly drawn) [Example 1R] was 37.7 nM; that for `C[C@@H]1CN(c2ccc3c(c2)CCC3)C(=O)c2c(N)ncnc2O1` [Example 1S] was below 10.7 nM.
Same read-out and setting: the value for `C[C@@H]1CN(c2ccc(C3CC3)cc2)C(=O)c2c(N)ncnc2O1` [Example 1U] was 19.9 nM.
In turn, `C[C@@H]1CN(c2ccc(C(O)(C(F)(F)F)C(F)(F)F)cc2)C(=O)c2c(N)ncnc2O1` [Example 1V] returned an IC50 under setting [1] of 39.5 nM.
The molecule `CC(O)c1ccc(N2C[C@@H](C)Oc3ncnc(N)c3C2=O)cc1` (stereo partly drawn) [Example 1W] showed a 50% inhibitory concentration (IC50) under setting [1] of 146 nM.
Turning to `COC(=O)C(C)(C)c1ccc(N2C[C@@H](C)Oc3ncnc(N)c3C2=O)cc1` [Example 1X], inhibition under setting [1] was half-maximal at 32.5 nM (IC50). This IC50 lies about 4.5-fold lower than the previous one.
On to `CC(C)Cc1ccc(N2C[C@@H](C)Oc3ncnc(N)c3C2=O)cc1` [Example 1Y, (8R)-4-amino-6-(4-isobutylphenyl)-8-methyl-7,8-dihydropyrimido[5,4-f]-[1,4]oxazepin-5(6H)-one], for which the IC50 under setting [1] was determined as 6.78 nM.
The same measure, in the same setting: next, `C[C@@H]1CN(c2ccc(C(C)(C)C(F)(F)F)cc2)C(=O)c2c(N)ncnc2O1` [Example 1Z, (8R)-4-amino-8-methyl-6-[4-(2,2,2-trifluoro-1,1-dimethylethyl)phenyl]-7,8-dihydropyrimido[5,4-f][1,4]oxazepin-5(6H)-one]: 14.3 nM.
Consider `Cc1noc(C[C@H]2CC[C@H](c3ccc(N4C[C@@H](C)Oc5ncnc(N)c5C4=O)cc3)CC2)n1` [Example 2C], for which half-maximal inhibition under setting [1] (IC50) was put at 8.1 nM.
In the case of `CCOC1CCN(C(=O)C[C@H]2CC[C@H](c3ccc(N4CCOc5ncnc(N)c5C4=O)cc3)CC2)CC1` [Example 6AB], under setting [2], inhibition was half-maximal at 54.7 nM (IC50).
Still for that read-out and setting: next, `CN(C)C(=O)CCN(C)C(=O)C[C@H]1CC[C@H](c2ccc(N3CCOc4ncnc(N)c4C3=O)cc2)CC1` [Example 6AC]: 178 nM.
On the same count and under the same terms, the value for `CC(F)(F)CN(CCO)C(=O)C[C@H]1CC[C@H](c2ccc(N3CCOc4ncnc(N)c4C3=O)cc2)CC1` [Example 6AD] was 42.1 nM.
The same measure, in the same setting: the value for `CC1(C)C(=O)NCCN1C(=O)C[C@H]1CC[C@H](c2ccc(N3CCOc4ncnc(N)c4C3=O)cc2)CC1` [Example 6AE] was 75.5 nM; that for `CN(CC1COCCO1)C(=O)C[C@H]1CC[C@H](c2ccc(N3CCOc4ncnc(N)c4C3=O)cc2)CC1` (stereo partly drawn) [Example 6AF] was 82.8 nM; that for `CN(C(=O)C[C@H]1CC[C@H](c2ccc(N3CCOc4ncnc(N)c4C3=O)cc2)CC1)[C@H]1CCCC[C@@H]1O` [Example 6AG] was 52.8 nM.
Regarding `CCC(C)CN(CCO)C(=O)C[C@H]1CC[C@H](c2ccc(N3CCOc4ncnc(N)c4C3=O)cc2)CC1` (stereo partly drawn) [Example 6AH], the IC50 under setting [2] is 67 nM.
In the case of `CC1CCCN1C(=O)C[C@H]1CC[C@H](c2ccc(N3CCOc4ncnc(N)c4C3=O)cc2)CC1` (stereo partly drawn) [Example 6AI], under setting [2], the IC50 is 80.4 nM.
In the case of `CCCN(CCO)C(=O)C[C@H]1CC[C@H](c2ccc(N3CCOc4ncnc(N)c4C3=O)cc2)CC1` [Example 6AJ], the IC50 under setting [2] was 65.5 nM.
The same measure, in the same setting: the value for `CN(Cc1ccc(F)cc1)C(=O)C[C@H]1CC[C@H](c2ccc(N3CCOc4ncnc(N)c4C3=O)cc2)CC1` [Example 6AK] was 18.1 nM; that for `Nc1ncnc2c1C(=O)N(c1ccc([C@H]3CC[C@H](CC(=O)N4CCNC(=O)CC4)CC3)cc1)CCO2` [Example 6AL] was 105 nM; that for `Nc1ncnc2c1C(=O)N(c1ccc([C@H]3CC[C@H](CC(=O)N4CC(F)C4)CC3)cc1)CCO2` [Example 6AM] was 139 nM.
On the same count and under the same terms, next, `CC1(CO)CCCN(C(=O)C[C@H]2CC[C@H](c3ccc(N4CCOc5ncnc(N)c5C4=O)cc3)CC2)C1` (stereo partly drawn) [Example 6AN]: 71.3 nM; `N#CC1CCCN(C(=O)C[C@H]2CC[C@H](c3ccc(N4CCOc5ncnc(N)c5C4=O)cc3)CC2)C1` (stereo partly drawn) [Example 6AO]: 40 nM; `CC1(O)CCN(C(=O)C[C@H]2CC[C@H](c3ccc(N4CCOc5ncnc(N)c5C4=O)cc3)CC2)CC1` [Example 6AP]: 107 nM.
The molecule `CC(c1cccnc1)N(C)C(=O)C[C@H]1CC[C@H](c2ccc(N3CCOc4ncnc(N)c4C3=O)cc2)CC1` (stereo partly drawn) [Example 6AQ] came in with a half-inhibitory concentration (IC50) under setting [2] of 87.5 nM.
Under setting [2], `CC1(O)CCN(C(=O)C[C@H]2CC[C@H](c3ccc(N4CCOc5ncnc(N)c5C4=O)cc3)CC2)C1` (stereo partly drawn) [Example 6AR] yielded an IC50 of 85.3 nM.
Turning to `CCN(Cc1nccn1C)C(=O)C[C@H]1CC[C@H](c2ccc(N3CCOc4ncnc(N)c4C3=O)cc2)CC1` [Example 6AS], the 50% inhibitory concentration (IC50) under setting [2] was 47.4 nM. This IC50 lies about 1.8-fold lower than the previous one.
Same read-out and setting: next, `CN(C)C(=O)CN(C)C(=O)C[C@H]1CC[C@H](c2ccc(N3CCOc4ncnc(N)c4C3=O)cc2)CC1` [Example 6AT]: 161 nM; `CC(c1ccncc1)N(C)C(=O)C[C@H]1CC[C@H](c2ccc(N3CCOc4ncnc(N)c4C3=O)cc2)CC1` (stereo partly drawn) [Example 6AU]: 75.5 nM.
The same measure, in the same setting: next, `Nc1ncnc2c1C(=O)N(c1ccc([C@H]3CC[C@H](CC(=O)N4CCC4)CC3)cc1)CCO2` [Example 6AW]: 73.2 nM.
The same measure, in the same setting: the value for `Nc1ncnc2c1C(=O)N(c1ccc([C@H]3CC[C@H](CC(=O)N4CCNC(=O)C4)CC3)cc1)CCO2` [Example 6AX] was 123 nM; that for `Nc1ncnc2c1C(=O)N(c1ccc([C@H]3CC[C@H](CC(=O)N4CCCCC4CCO)CC3)cc1)CCO2` (stereo partly drawn) [Example 6AY] was 85.3 nM.
As for `Cc1cc(CN(C)C(=O)C[C@H]2CC[C@H](c3ccc(N4CCOc5ncnc(N)c5C4=O)cc3)CC2)ccn1` [Example 6AZ], under setting [2], the IC50 came to 67 nM.
As for `CO[C@@H]1CCN(C(=O)C[C@H]2CC[C@H](c3ccc(N4CCOc5ncnc(N)c5C4=O)cc3)CC2)C1` [Example 6BA], under setting [2], the IC50 stood at 60.1 nM.
Take `CC1C(=O)NCCN1C(=O)C[C@H]1CC[C@H](c2ccc(N3CCOc4ncnc(N)c4C3=O)cc2)CC1` (stereo partly drawn) [Example 6BB]: the IC50 under setting [2] is 147 nM.
`C[C@@H]1COCCN1C(=O)C[C@H]1CC[C@H](c2ccc(N3CCOc4ncnc(N)c4C3=O)cc2)CC1` [Example 6BD] returned an IC50 under setting [2] of 47.2 nM. Compared with the last molecule, the IC50 is about 3.1-fold lower.
Same read-out and setting: the value for `Nc1ncnc2c1C(=O)N(c1ccc([C@H]3CC[C@H](CCC(=O)N4CCOCC4)CC3)cc1)CCO2` [Example 6BF] was 60.1 nM.
`C[C@@H]1CN(c2ccc(C(=O)N(C)C)cc2)C(=O)c2c(N)ncnc2O1` [Example 6BG] gave an IC50 under setting [1] of 1670 nM.
The molecule `CN(CC1CCOCC1)C(=O)C[C@H]1CC[C@H](c2ccc(N3CCOc4ncnc(N)c4C3=O)cc2)CC1` [Example 6D] showed an IC50 under setting [2] of 103 nM.
The same measure, in the same setting: next, `CO[C@H]1CCN(C(=O)C[C@H]2CC[C@H](c3ccc(N4CCOc5ncnc(N)c5C4=O)cc3)CC2)C1` [Example 6E]: 72.1 nM.
With `COC[C@H]1CCN(C(=O)C[C@H]2CC[C@H](c3ccc(N4CCOc5ncnc(N)c5C4=O)cc3)CC2)C1` [Example 6F], under setting [2], the IC50 is 84.9 nM.
On the same count and under the same terms, next, `N#CC1CCN(C(=O)C[C@H]2CC[C@H](c3ccc(N4CCOc5ncnc(N)c5C4=O)cc3)CC2)CC1` [Example 6G]: 50.1 nM; `CN(C(=O)C[C@H]1CC[C@H](c2ccc(N3CCOc4ncnc(N)c4C3=O)cc2)CC1)C1CCOCC1` [Example 6H]: 53.5 nM; `COCC1CCN(C(=O)C[C@H]2CC[C@H](c3ccc(N4CCOc5ncnc(N)c5C4=O)cc3)CC2)CC1` [Example 6I]: 57.8 nM.
Under setting [2], `COCCN(C)C(=O)C[C@H]1CC[C@H](c2ccc(N3CCOc4ncnc(N)c4C3=O)cc2)CC1` [Example 6J] returned an IC50 of 51 nM.
Same read-out and setting: the value for `Nc1ncnc2c1C(=O)N(c1ccc([C@H]3CC[C@H](CC(=O)N4CCC(F)(F)CC4)CC3)cc1)CCO2` [Example 6L] was 105 nM; that for `Nc1ncnc2c1C(=O)N(c1ccc([C@H]3CC[C@H](CC(=O)N4CCCC(CO)C4)CC3)cc1)CCO2` (stereo partly drawn) [Example 6M] was 45.7 nM.
Same read-out and setting: the value for `CCN(CCCCO)C(=O)C[C@H]1CC[C@H](c2ccc(N3CCOc4ncnc(N)c4C3=O)cc2)CC1` [Example 6N] was 37.5 nM.
With `Nc1ncnc2c1C(=O)N(c1ccc([C@H]3CC[C@H](CC(=O)N4CCC[C@@H](O)C4)CC3)cc1)CCO2` [Example 6O], 162 nM corresponded to half-maximal inhibition under setting [2] (IC50).
Still for that read-out and setting: the value for `CC(O)C1CCN(C(=O)C[C@H]2CC[C@H](c3ccc(N4CCOc5ncnc(N)c5C4=O)cc3)CC2)CC1` (stereo partly drawn) [Example 6P] was 39.3 nM.
Regarding `Cc1nnc2n1CCN(C(=O)C[C@H]1CC[C@H](c3ccc(N4CCOc5ncnc(N)c5C4=O)cc3)CC1)C2` [Example 6Q], the IC50 under setting [2] was 240 nM.
Still for that read-out and setting: next, `CCC1(CO)CCN(C(=O)C[C@H]2CC[C@H](c3ccc(N4CCOc5ncnc(N)c5C4=O)cc3)CC2)C1` (stereo partly drawn) [Example 6R]: 17.5 nM; `CC(=O)N[C@@H]1CCN(C(=O)C[C@H]2CC[C@H](c3ccc(N4CCOc5ncnc(N)c5C4=O)cc3)CC2)C1` [Example 6S]: 192 nM; `Nc1ncnc2c1C(=O)N(c1ccc([C@H]3CC[C@H](CC(=O)N4CCC(CO)C4)CC3)cc1)CCO2` (stereo partly drawn) [Example 6T]: 125 nM.
As for `CCN(C(=O)C[C@H]1CC[C@H](c2ccc(N3CCOc4ncnc(N)c4C3=O)cc2)CC1)C(C)(C)CO` [Example 6U], the IC50 under setting [2] was found to be 129 nM.
